Data: PMC11731258, “The structural basis for high-affinity c-di-GMP binding to the GSPII-B domain of the traffic ATPase PilF from Thermus thermophilus” (The Journal of Biological Chemistry, 2024)
Read-outs that look alike come from different tables or passages of the source.

Columns and labels:
[1] = molecular target: T1, PilF1-889 (full-length PilF) (Thermus thermophilus, UniProt Q5SLC9); assay: ITC c-di-GMP binding to full-length PilF; settings: 20 °C; for Kd: pH 7.5, two-site model
T1 sequence (Q5SLC9 1-889): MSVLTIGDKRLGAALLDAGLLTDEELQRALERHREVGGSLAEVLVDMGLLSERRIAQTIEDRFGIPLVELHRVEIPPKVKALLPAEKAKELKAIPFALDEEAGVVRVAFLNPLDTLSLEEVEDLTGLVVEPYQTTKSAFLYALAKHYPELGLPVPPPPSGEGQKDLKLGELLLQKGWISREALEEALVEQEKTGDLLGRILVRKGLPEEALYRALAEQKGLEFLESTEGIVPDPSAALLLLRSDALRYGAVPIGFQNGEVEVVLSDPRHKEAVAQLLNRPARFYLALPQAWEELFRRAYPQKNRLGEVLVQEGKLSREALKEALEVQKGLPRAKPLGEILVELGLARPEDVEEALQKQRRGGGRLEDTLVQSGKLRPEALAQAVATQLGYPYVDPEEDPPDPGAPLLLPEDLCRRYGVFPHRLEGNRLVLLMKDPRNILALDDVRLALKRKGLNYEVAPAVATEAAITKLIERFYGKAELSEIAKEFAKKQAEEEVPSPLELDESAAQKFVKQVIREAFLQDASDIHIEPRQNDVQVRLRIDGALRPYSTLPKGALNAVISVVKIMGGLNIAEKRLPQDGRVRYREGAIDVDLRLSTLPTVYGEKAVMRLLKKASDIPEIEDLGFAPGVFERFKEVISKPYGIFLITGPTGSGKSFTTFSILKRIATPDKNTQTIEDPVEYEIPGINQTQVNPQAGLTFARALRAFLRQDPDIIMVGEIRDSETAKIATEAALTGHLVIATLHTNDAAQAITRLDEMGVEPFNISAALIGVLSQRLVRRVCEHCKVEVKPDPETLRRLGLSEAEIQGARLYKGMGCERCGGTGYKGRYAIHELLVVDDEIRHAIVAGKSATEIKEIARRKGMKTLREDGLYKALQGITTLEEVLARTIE
Experimental: (§1) To assess the ligand-binding capabilities of the various PilF constructs, triplicates of ITC measurements were recorded for each construct. The measurements were carried out using a MicroCal ITC200 (Malvern Panalytical). All ITC experiments were conducted at 20 °C with 50 mM Tris-HCl pH 7.5, 200 mM sodium chloride, 1 mM β-mercaptoethanol as the sample buffer. All protein samples were extensively dialyzed against the sample buffer and the buffer used for dialysis was used to dilute protein and c-di-GMP samples in preparation for the ITC measurements. Each measurement was conducted using the following protocol. In total, 39.8 μl c-di-GMP were titrated to 270 μl protein in 20 separate injections in 180 s intervals with a stirring speed of 750 rpm. After an initial delay of 120 s, the first injection of 0.2 μl c-di-GMP with a duration of 0.4 s was followed by 19 injections of 2 μl with a duration of 4 s. During the measurement, the feedback mode was set to high and the reference power to 11 μcal s^−1. To optimize precision of the measurements, protein and c-di-GMP concentrations were adjusted to the binding capabilities of the respective constructs and ranged from 5 to 200 μM for protein and 50 to 2000 μM for c-di-GMP. All thermograms were processed using Origin 7.0 (OriginLab) using a one-site– or two-site–binding model dependent on the number of expected binding events.

[2] = molecular target: T2, PilF1-482 (GSPII-A, -B, -C; lacks ATPase domain) (Thermus thermophilus, UniProt Q5SLC9); assay: ITC binding to PilF1-482; settings: 20 °C; for Kd: pH 7.5, two-site model
T2 sequence (Q5SLC9 1-482): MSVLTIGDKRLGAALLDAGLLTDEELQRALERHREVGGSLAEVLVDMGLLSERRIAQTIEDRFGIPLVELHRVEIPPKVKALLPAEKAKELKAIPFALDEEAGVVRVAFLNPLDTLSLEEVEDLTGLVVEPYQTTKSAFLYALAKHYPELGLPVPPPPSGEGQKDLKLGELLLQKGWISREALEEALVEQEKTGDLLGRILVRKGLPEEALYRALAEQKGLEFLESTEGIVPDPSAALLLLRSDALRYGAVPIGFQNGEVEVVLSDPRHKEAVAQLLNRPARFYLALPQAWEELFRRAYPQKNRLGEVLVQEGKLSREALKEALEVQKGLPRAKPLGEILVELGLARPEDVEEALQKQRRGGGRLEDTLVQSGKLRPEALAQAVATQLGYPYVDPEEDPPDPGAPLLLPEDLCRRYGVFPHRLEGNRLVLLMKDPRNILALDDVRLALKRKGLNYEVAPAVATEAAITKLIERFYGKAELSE
Experimental: as §1

PilF159-302 K167R = molecular target: T3, PilF159-302 K167R (Thermus thermophilus, UniProt Q5SLC9, K167R); assay: ITC binding to PilF159-302 K167R; settings: 20 °C
T3 sequence (Q5SLC9 159-302 K167R): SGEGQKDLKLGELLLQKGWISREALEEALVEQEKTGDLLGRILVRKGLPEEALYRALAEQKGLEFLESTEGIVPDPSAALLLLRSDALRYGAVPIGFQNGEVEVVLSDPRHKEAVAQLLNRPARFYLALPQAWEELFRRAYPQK
Experimental: as §1

[3] = molecular target: T4, PilF159-221 (lacking the C-terminal subdomain) (Thermus thermophilus, UniProt Q5SLC9); assay: ITC binding to PilF159-221
T4 sequence (Q5SLC9 159-221): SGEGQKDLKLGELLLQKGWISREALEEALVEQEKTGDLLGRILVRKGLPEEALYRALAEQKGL
Experimental: as §1

PilF159-302 Q190E = molecular target: T5, PilF159-302 Q190E (Thermus thermophilus, UniProt Q5SLC9, Q190E); assay: ITC binding to PilF159-302 Q190E; settings: 20 °C
T5 sequence (Q5SLC9 159-302 Q190E): T3 sequence (Q5SLC9 159-302 K167R)
Experimental: as §1

PilB2 = molecular target: PilB2; set-up: method as in PMID 27578558, PMID 31868878; settings: cited from earlier work

## Nc1nc2c(ncn2[C@@H]2O[C@@H]3COP(=O)(O)O[C@H]4[C@@H](O)[C@H](n5cnc6c(=O)[nH]c(N)nc65)O[C@@H]4COP(=O)(O)O[C@H]3[C@H]2O)c(=O)[nH]1 [c-di-GMP, cyclic dimeric guanosine monophosphate]
[1]; Table S1 site 1
  ΔH, site 1: -11.763 ± 0.78 kcal/mol
  ΔS, site 1: -10.4 ± 2.7 cal/mol/deg
[1]; Table S1 site 1 (low affinity)
  N, site 1: 0.72 ± 0.10
[1]; Table S1 site 2
  ΔH, site 2: -15.683 ± 0.97 kcal/mol
  ΔS, site 2: -16.5 ± 2.2 cal/mol/deg
[1]; Table S1 site 2 (high affinity)
  N, site 2: 0.59 ± 0.03
[1]; read-out: KD, high-affinity site (KD1 in text and Fig. 1C; site 2 in Table S1)
  Kd: 0.01 ± 0.005 µM
[1]; read-out: KD, low-affinity site (KD2 in text and Fig. 1C; site 1 in Table S1)
  Kd: 0.324 ± 0.002 µM
[2]; Table S1 site 1
  N, site 1: 0.98 ± 0.04
  ΔH, site 1: -12.793 ± 0.095 kcal/mol
  ΔS, site 1: -14.6 ± 0.2 cal/mol/deg
[2]; Table S1 site 2
  N, site 2: 0.85 ± 0.03
  ΔH, site 2: -17.536 ± 0.128 kcal/mol
  ΔS, site 2: -24.3 ± 0.3 cal/mol/deg
[2]; read-out: KD, high-affinity site (KD1 in text; site 2 in Table S1)
  Kd: 0.017 ± 0.001 µM
[2]; read-out: KD, low-affinity site (KD2 in text; site 1 in Table S1)
  Kd: 0.461 ± 0.036 µM
PilF159-302 K167R
  N: 0.79 ± 0.03
  ΔH: -10.42 ± 0.552 kcal/mol
  ΔS: -4.4 ± 1.9 cal/mol/deg
PilF159-302 K167R; pH 7.5
  Kd: 0.15 ± 0.007 µM
[3]; ITC, 20 °C
  N: 1.17 ± 0.02
  ΔH: -11.453 ± 0.189 kcal/mol
  ΔS: -5.8 ± 0.6 cal/mol/deg
[3]; ITC, 20 °C, pH 7.5
  Kd: 0.054 ± 0.003 µM
[3]; PilF159-302 6 nM
  fold higher KD than PilF159-302: 9 fold
PilF159-302 Q190E
  N: 1.11 ± 0.03
  ΔH: -3.389 ± 0.156 kcal/mol
  ΔS: 15.4 ± 0.4 cal/mol/deg
PilF159-302 Q190E; pH 7.5
  Kd: 0.95 ± 0.007 µM
PilB2
  Kd: 0.0135 µM
